Results reported in US20140303185A1, “NOVEL POLYMORPHS OF VILAZODONE HYDROCHLORIDE” (ORCHID CHEMICALS & PHARMACEUTICALS LIMITED, priority 2013, published 2014).
Where a name gives a salt, the structure may show the parent alone.

Experiment: Storage stability of Vilazodone HCl polymorphic forms
Assay type: physicochemical
Settings: for storage stability: at accelerated condition (tables 3 & 4)
[1] = Stability at 40 ± 2° C. & 75 ± 5% RH, Final
[2] = Stability at 40 ± 2° C. & 75 ± 5% RH, Final, hydrochloride
[3] = Stability at 40 ± 2° C. & 75 ± 5% RH, Initial, hydrochloride
[4] = Stability at 60 ± 2° C., Final, hydrochloride
[5] = Stability at 60 ± 2° C., Initial, hydrochloride

| Description [1] | Purity [1] | Moisture content [2] | Moisture content [3] | Purity [3] | Description (Stability at 60 ± 2° C., Final) | Moisture content [4] | Purity [4] | Moisture content [5] | Purity [5] | storage stability | Description [3] | Description [5] | SMILES |
| --- | --- | --- | --- | --- | --- | --- | --- | --- | --- | --- | --- | --- | --- |
| white to off | 99.60% | 1.29% | 1.10% | 99.65% | white to off | 0.76% | 99.65% | 1.10% | 99.65% | good storage stability | – | – | N#Cc1ccc2[nH]cc(CCCCN3CCN(c4ccc5oc(C(N)=O)cc5c4)CC3)c2c1 [Form A, 1-[4-(5-cyanoindol-3-yl)butyl]-4-(2-carbamoylbenzofuran-5-yl) piperazine hydrochloride] |
| white to off | 99.60% | 1.91% | 2.06% | 99.62% | white to off | 0.81% | 99.60% | 2.06% | 99.62% | good storage stability | white to off | white to off | N#Cc1ccc2[nH]cc(CCCCN3CCN(c4ccc5oc(C(N)=O)cc5c4)CC3)c2c1 [Form B, 1-[4-(5-cyanoindol-3-yl)butyl]-4-(2-carbamoylbenzofuran-5-yl) piperazine hydrochloride] |
